Laboratory results: patent US9856216B2, “Compounds as TNIK, IKKε and TBK1 inhibitors and pharmaceutical composition comprising same” (GREEN CROSS CORPORATION, priority 2015, dated 2018)

target: T1, TNIK (Homo sapiens, UniProt Q9UKE5); assay: ADP-Glo Kinase Assay, inhibition activity on TNIK; assay type: biochemical; details: not given
T1 construct: purchased Promega V4158
Protocol: The inhibition activities on TNIK, IKKε and TBK1 were measured by a luminometer, TNIK/IKKε/TBK1 Kinase Enzyme System (Promega, Ca# V4158; Invitrogen, PR8031B, Promega, Ca# V3991) and ADP-Glo Kinase Assay using ADP-Glo™ Kinase Analysis Kit (Promega, Ca# V9101) and a kinase reaction buffer [40 mM Tris(pH 7.5), 20 mM MgCl2, 0.1 mg/mL BSA] in accordance with the manufacturer's protocol.

T1 sequence (Q9UKE5 1-367 limits assumed): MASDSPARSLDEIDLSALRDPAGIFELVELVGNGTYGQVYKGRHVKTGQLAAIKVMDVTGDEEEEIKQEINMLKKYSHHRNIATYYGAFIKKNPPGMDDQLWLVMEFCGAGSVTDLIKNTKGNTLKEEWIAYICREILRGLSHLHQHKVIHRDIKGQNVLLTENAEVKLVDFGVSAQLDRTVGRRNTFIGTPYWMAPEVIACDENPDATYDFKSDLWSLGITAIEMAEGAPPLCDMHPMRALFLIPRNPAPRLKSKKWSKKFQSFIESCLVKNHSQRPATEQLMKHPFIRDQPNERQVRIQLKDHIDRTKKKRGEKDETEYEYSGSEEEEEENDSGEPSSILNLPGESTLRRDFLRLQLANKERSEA

TNIK (μM)	SMILES
Insoluble	CN(C)CCCNc1ccc(C(=O)Nc2ccc(-c3cccc(F)c3F)c3c2C(=O)NC3)cc1 [Example 368, N-(7-(2,3-difluorophenyl)-3-oxoisoindolin-4-yl)-4-((3-(dimethylamino)propyl)amino)benzamide]
Insoluble	Cc1nc2cccc(-c3ccc(NC(=O)c4ccc(F)cc4)c4c3CNC4=O)c2o1 [Example 194, 4-Fluoro-N-(7-(2-methylbenzo[d]oxazol-7-yl)-3-oxoisoindolin-4-yl)benzamide]

same assay, conditions: read-out: TNIK

IC50 [nM]	SMILES
730	COc1cccc(-c2ccc(NC(=O)c3ccc(N4CCOCC4)cc3)c3c2CNC3=O)c1OC [Example 312, N-(7-(2,3-dimethoxyphenyl)-3-oxoisoindolin-4-yl)-4-morpholinobenzamide]
1350	Cc1cccc(Nc2ccc(NC(=O)c3ccc(F)cc3)c3c2CNC3=O)c1C [Example 424, N-(7-((2,3-dimethylphenyl)amino)-3-oxoisoindolin-4-yl)-4-fluorobenzamide]
2500	Nc1ccc(-c2ccccc2)c2c1C(=O)NC2=O [Example 271, 4-Amino-7-phenylisoindolin-1,3-dione]
4820	Cc1cc(NCCN2CCCC2)ccc1C(=O)Nc1ccc(-c2ccccc2)c2c1C(=O)NC2 [Example 309, 2-Methyl-N-(3-oxo-7-phenylisoindolin-4-yl)-4-((2-(pyrrolidin-1-yl)ethyl)amino)benzamide]
350	CN1CCN(CCNc2ccc(C(=O)Nc3ccc(-c4ccccc4)c4c3C(=O)NC4)cc2)CC1 [Example 379, 4-((2-(4-Methylpiperazin-1-yl)ethyl)amino)-N-(3-oxo-7-phenylisoindolin-4-yl)benzamide]
150	O=C(Nc1ccc(Nc2cccc(Cl)c2)c2c1C(=O)NC2)c1ccc(NCCCN2CCCC2)cc1 [Example 457, N-(7-((3-chlorophenyl)amino)-3-oxoisoindolin-4-yl)-4-((3-(pyrrolidin-1-yl)propyl)amino)benzamide]
> 20000	COc1ccc(S(=O)(=O)Nc2ccc(-c3ccccc3)c3c2C(=O)NC3)cc1 [Example 252, 4-Methoxy-N-(3-oxo-7-phenylisoindolin-4-yl)benzene sulfonamide]
74	O=C(Nc1ccc(Nc2ccccc2)c2c1C(=O)NC2)c1ccc(NCCCO)cc1 [Example 464, 4-((3-Hydroxypropyl)amino)-N-(3-oxo-7-(phenylamino)isoindolin-4-yl)benzamide]
> 20000	CN1CCN(CCNc2ccc(-c3ccccc3)c3c2C(=O)NC3)CC1 [Example 258, 7-((2-(4-Methylpiperazin-1-yl)ethyl)amino)-4-phenylisoindolin-1-one]
2800	CN(C)c1ccccc1-c1ccc(NC(=O)c2ccccc2)c2c1CNC2=O [Example 185, N-(7-(2-(dimethylamino)phenyl)-3-oxoisoindolin-4-yl) benzamide]
470	Cc1cccc(Nc2ccc(NC(=O)c3ccc(NCCCN4CCCC4)cc3)c3c2CNC3=O)c1C [Example 470, N-(7-((2,3-dimethylphenyl)amino)-3-oxoisoindolin-4-yl)-4-((3-(pyrrolidin-1-yl)propyl)amino)benzamide]
> 20000	O=C(Nc1ccc(-c2cccnc2)c2c1C(=O)NC2)c1ccccc1 [Example 152, N-(3-oxo-7-(pyridin-3-yl)isoindolin-4-yl)benzamide]
490	COc1c(F)cccc1-c1ccc(NC(=O)c2ccccc2)c2c1CNC2=O [Example 48, N-(7-(3-fluoro-2-methoxyphenyl)-3-oxoisoindolin-4-yl) benzamide]
2200	COc1cccc(OC)c1-c1ccc(NC(=O)c2ccccc2)c2c1CNC2=O [Example 187, N-(7-(2,6-dimethoxyphenyl)-3-oxoisoindolin-4-yl)benzamide]
> 20000	CSc1cccc(C(=O)Nc2ccc(-c3ccccc3)c3c2C(=O)NC3)c1 [Example 97, 3-(Methylthio)-N-(3-oxo-7-phenylisoindolin-4-yl)benzamide]
440	O=C(Nc1ccc(-c2cncs2)c2c1C(=O)NC2)c1ccccc1 [Example 51, N-(3-oxo-7-(thiazol-5-yl)isoindolin-4-yl)benzamide]
7000	COc1ccc(C(=O)Nc2ccc(-c3ccc(F)cc3)c3c2C(=O)NC3)cc1 [Example 123, N-(7-(4-fluorophenyl)-3-oxoisoindolin-4-yl)-4-methoxy benzamide]
> 20000	O=C(Nc1ccc(Sc2ccccc2)c2c1C(=O)NC2)c1ccc(F)cc1 [Example 404, 4-Fluoro-N-(3-oxo-7-(phenylthio)isoindolin-4-yl)benzamide]
57	COc1cccc(-c2ccc(NC(=O)c3ccc(NCCCN4CCN(C)CC4)cc3)c3c2CNC3=O)c1OC [Example 316, N-(7-(2,3-dimethoxyphenyl)-3-oxoisoindolin-4-yl)-4-((3-(4-methylpiperazin-1-yl)propyl)amino)benzamide]
> 20000	O=C(Nc1ccc(-c2ccccc2C(F)(F)F)c2c1C(=O)NC2)c1ccccc1 [Example 114, N-(3-oxo-7-(2-(trifluoromethyl)phenyl)isoindolin-4-yl) benzamide]
900	COc1ccc(NC(=O)Nc2ccc(-c3ccccc3)c3c2C(=O)NC3)cc1 [Example 230, 1-(4-Methoxyphenyl)-3-(3-oxo-7-phenylisoindolin-4-yl)urea]
> 20000	Cc1csc(C(=O)Nc2ccc(-c3ccccc3)c3c2C(=O)NC3)c1 [Example 110, 4-Methyl-N-(3-oxo-7-phenylisoindolin-4-yl)thiophene-2-carboxamide]
640	O=C(Nc1ccc(-c2ccccc2O)c2c1C(=O)NC2)c1ccc(NCCCCO)cc1 [Example 357, 4-((4-Hydroxybutyl)amino)-N-(7-(2-hydroxyphenyl)-3-oxoisoindolin-4-yl)benzamide]
1100	CCCCNC(=O)Nc1ccc(-c2ccccc2)c2c1C(=O)NC2 [Example 229, 1-Butyl-3-(3-oxo-7-phenylisoindolin-4-yl)urea]
1100	CC(=O)Nc1ccc(-c2ccccc2)c2c1C(=O)NC2 [Example 160, N-(3-oxo-7-phenylisoindolin-4-yl)acetamide]
650	COc1ccccc1-c1ccc(NC(=O)c2ccccc2)c2c1C(=O)NC2=O [Example 277, N-(7-(2-methoxyphenyl)-1,3-dioxoisoindolin-4-yl)benzamide]
84	COc1ccccc1-c1ccc(NC(=O)c2ccc(NCCO)cc2)c2c1CNC2=O [Example 352, 4-((2-Hydroxyethyl)amino)-N-(7-(2-methoxyphenyl)-3-oxoisoindolin-4-yl)benzamide]
> 20000	O=C(Nc1ccc(-c2cc(Cl)cc(Cl)c2)c2c1C(=O)NC2)c1ccccc1 [Example 21, N-(7-(3,5-dichlorophenyl)-3-oxoisoindolin-4-yl)benzamide]
> 20000	COc1cccc(-c2ccc(NC(=O)c3cccs3)c3c2CN(C(=O)c2cccs2)C3=O)c1OC [Example 225, N-(7-(2,3-dimethoxyphenyl)-3-oxo-2-(thiophene-2-carbonyl)isoindolin-4-yl)thiophene-2-carboxamide]
260	COc1ccccc1-c1ccc(NC(=O)c2ccc(NCCN3CCCC3)cc2)c2c1CNC2=O [Example 318, N-(7-(2-methoxyphenyl)-3-oxoisoindolin-4-yl)-4-((2-(pyrrolidin-1-yl)ethyl)amino)benzamide]
